How the values were obtained:
barnyardgrass [1] = assay: Test A pre-/postemergence herbicide test; assay type: in vivo, Echinochloa crus-galli
How it was run: (§1)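 Visual injury rating on a 0–100 scale (0 no effect, 100 complete control) versus untreated controls, about ten days after treatment in greenhouse. Pre: directed soil spray onto seeded sandy loam. Post: spray to runoff on plants 2–10 cm tall at one- to two-leaf stage.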

large crabgrass [2] = assay: Test A pre-/postemergence herbicide test; assay type: in vivo, Digitaria sanguinalis
How it was run: as §1

giant foxtail [3] = assay: Test A pre-/postemergence herbicide test; assay type: in vivo, Setaria faberi
How it was run: as §1

morningglory [4] = assay: Test A pre-/postemergence herbicide test; assay type: in vivo, Ipomoea spp.
How it was run: as §1

redroot pigweed = assay: Test A pre-/postemergence herbicide test; assay type: in vivo, Amaranthus retroflexus
How it was run: as §1

velvetleaf [5] = assay: Test A pre-/postemergence herbicide test; assay type: in vivo, Abutilon theophrasti
How it was run: as §1

barnyardgrass [6] = assay: Test B pre-/postemergence herbicide test; assay type: in vivo, Echinochloa crus-galli; conditions: for Barnyardgrass plant response rating: postemergence
How it was run: (§2)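 Visual rating, 0 (no effect) to 100 (complete control), versus untreated controls after 13–15 d in greenhouse. Pre- and postemergence applications (postemergence plants 2–18 cm, 1–4 leaves); flooded paddy arm at 2-leaf stage. Compounds in non-phytotoxic solvent plus surfactant.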

Surinam grass = assay: Test B pre-/postemergence herbicide test; assay type: in vivo, Urochloa decumbens; conditions: for Surinam Grass plant response rating: postemergence
How it was run: (§3)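 Test chemicals in a non-phytotoxic solvent mixture with surfactant were applied preemergence to seeded species and postemergence to plants 2-18 cm tall (1- to 4-leaf stage); rice and barnyardgrass were also tested in a flooded paddy at the 2-leaf stage. Visual rating versus controls after 13-15 days in greenhouse, scale 0 (no effect) to 100 (complete control).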

cocklebur = assay: Test B pre-/postemergence herbicide test; assay type: in vivo, Xanthium strumarium; conditions: for Cocklebur plant response rating: postemergence
How it was run: as §2

corn = assay: Test B pre-/postemergence herbicide test; assay type: in vivo, Zea mays; conditions: for Corn plant response rating: postemergence
How it was run: as §3

large crabgrass [7] = assay: Test B pre-/postemergence herbicide test; assay type: in vivo, Digitaria sanguinalis; conditions: for Crabgrass, Large plant response rating: postemergence
How it was run: as §3

giant foxtail [8] = assay: Test B pre-/postemergence herbicide test; assay type: in vivo, Setaria faberi; conditions: for Foxtail, Giant plant response rating: postemergence
How it was run: as §3

lambsquarters = assay: Test B pre-/postemergence herbicide test; assay type: in vivo, Chenopodium album; conditions: for Lambsquarters plant response rating: postemergence
How it was run: as §3

morningglory [9] = assay: Test B pre-/postemergence herbicide test; assay type: in vivo, Ipomoea coccinea; conditions: for Morningglory plant response rating: postemergence
How it was run: as §2

pigweed = assay: Test B pre-/postemergence herbicide test; assay type: in vivo, Amaranthus retroflexus; conditions: for Pigweed plant response rating: postemergence
How it was run: as §3

rice [10] = assay: Test B pre-/postemergence herbicide test; assay type: in vivo, Oryza sativa; conditions: preemergence
How it was run: as §3

velvetleaf [11] = assay: Test B pre-/postemergence herbicide test; assay type: in vivo, Abutilon theophrasti; conditions: for Velvetleaf plant response rating: postemergence
How it was run: as §3

blackgrass = assay: Test B postemergence herbicide test; assay type: in vivo, Alopecurus myosuroides; conditions: postemergence
How it was run: (§4)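 Visual ratings, 0 (no effect) to 100 (complete control), made versus controls after 13–15 d greenhouse. Paddy plants treated at 2-leaf stage; postemergence plants at 1- to 4-leaf stage, 2–18 cm tall.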

wheat = assay: Test B postemergence herbicide test; assay type: in vivo, Triticum aestivum; set-up: key to Wheat plant response rating: 0 = no effect, 100 = complete control; conditions: postemergence
How it was run: as §4

wild oat = assay: Test B postemergence herbicide test; assay type: in vivo, Avena fatua; conditions: postemergence
How it was run: as §4

rice [12] = assay: Test B flooded paddy test; assay type: in vivo, Oryza sativa; conditions: 1000 g ai/ha, scale 0 to 100 (0 no effect, 100 complete control)
How it was run: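 Paddy species grown to the 2-leaf stage under flooding; blackgrass sprayed postemergence at 2–18 cm (1- to 4-leaf stage). Plants kept in a greenhouse for 13 to 15 days, then visually rated against controls on 0 (no effect) to 100 (complete control).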

[13] = test system: small flower umbrella sedge; assay: Test B flooded paddy test; assay type: in vivo, Cyperus difformis; conditions: 1000 g ai/ha, scale 0 to 100 (0 no effect, 100 complete control)
How it was run: as §4

ducksalad = assay: Test B flooded paddy test; assay type: in vivo, Heteranthera limosa; conditions: 1000 g ai/ha, scale 0 to 100 (0 no effect, 100 complete control)
How it was run: as §4

barnyardgrass [14] = assay: Test B flooded paddy test; assay type: in vivo, Echinochloa crus-galli; conditions: 1000 g ai/ha, scale 0 to 100 (0 no effect, 100 complete control)
How it was run: as §4

[15] = Postemergence, 500 g ai/ha, 0 to 100 scale, 0 no effect, 100 complete control
[16] = Postemergence, 2000 g ai/ha, 0 to 100 scale, 0 no effect, 100 complete control
[17] = Preemergence, 2000 g ai/ha, visual rating, 0 to 100 scale (0 no effect, 100 complete control)
[18] = preemergence, 500 g ai/ha, visual injury, 0 to 100 scale (0 no effect, 100 complete control)
[19] = 125 g ai/ha, 0 is no effect, 100 is complete control, preemergence
[20] = 125 g ai/ha, visual rating, scale 0 (no effect) to 100 (complete control)
[21] = 500 g ai/ha, visual rating, 0 = no effect, 100 = complete control, preemergence
[22] = 500 g ai/ha, scale 0 to 100, 0 is no effect, 100 is complete control

C#CCNC(=O)c1cccc(NC(=O)c2cc(C(C)(C)C)nn2C)n1 [Compound 316]
45: Plant response rating, Barnyardgrass (barnyardgrass [1]; [16]) | Plant response rating, Crabgrass, Large (large crabgrass [2]; [16])
80: Plant response rating, Pigweed (redroot pigweed; [16])
15: Velvetleaf plant response rating (velvetleaf [5]; [15]) | Velvetleaf plant response rating (velvetleaf [5]; [17])
35: Crabgrass, Large plant response rating (large crabgrass [2]; [17])
10: Barnyardgrass plant response rating (barnyardgrass [1]; [17]) | Crabgrass, Large plant response rating (large crabgrass [2]; [18]) | Surinam Grass plant response rating (Surinam grass; [20]) | Surinam Grass plant response rating (Surinam grass; [22]) | Corn plant response rating (corn; [20]) | Crabgrass, Large plant response rating (large crabgrass [7]; [20]) | Crabgrass, Large plant response rating (large crabgrass [7]; [22]) | Morningglory plant response rating (morningglory [9]; [20]) | Morningglory plant response rating (morningglory [9]; [22]) | Pigweed plant response rating (pigweed; [20])
30: Plant response rating, Foxtail, Giant (giant foxtail [3]; [16]) | Plant response rating, Morningglory (morningglory [4]; [16])
50: Pigweed plant response rating (pigweed; [22])
70: Lambsquarters plant response rating (lambsquarters; [22])
25: Crabgrass, Large plant response rating (large crabgrass [2]; [15]) | Pigweed plant response rating (redroot pigweed; [15])
90: Plant response rating, Pigweed (pigweed; [21])
5: Velvetleaf plant response rating (velvetleaf [5]; [18])
40: Barnyardgrass plant response rating (barnyardgrass [6]; [22]) | Lambsquarters plant response rating (lambsquarters; [20]) | Velvetleaf plant response rating (velvetleaf [11]; [22])
20: Barnyardgrass plant response rating (barnyardgrass [1]; [15]) | Foxtail, Giant plant response rating (giant foxtail [3]; [15]) | Morningglory plant response rating (morningglory [4]; [15]) | Plant response rating, Velvetleaf (velvetleaf [5]; [16]) | Cocklebur plant response rating (cocklebur; [22]) | Corn plant response rating (corn; [22]) | Plant response rating, Crabgrass, Large (large crabgrass [7]; [21]) | Foxtail, Giant plant response rating (giant foxtail [8]; [22]) | Plant response rating, Velvetleaf (velvetleaf [11]; [21]) | Oat, Wild plant response rating (wild oat; [22])
60: Plant response rating, Lambsquarters (lambsquarters; [21])
65: Pigweed plant response rating (redroot pigweed; [17])
0: Barnyardgrass plant response rating (barnyardgrass [1]; [18]) | Foxtail, Giant plant response rating (giant foxtail [3]; [17]) | Foxtail, Giant plant response rating (giant foxtail [3]; [18]) | Morningglory plant response rating (morningglory [4]; [17]) | Morningglory plant response rating (morningglory [4]; [18]) | Pigweed plant response rating (redroot pigweed; [18]) | Plant response rating (0 to 100 scale), Barnyardgrass (barnyardgrass [6]; [19]) | Barnyardgrass plant response rating (barnyardgrass [6]; [20]) | Plant response rating, Barnyardgrass (barnyardgrass [6]; [21]) | Plant response rating (0 to 100 scale), Surinam Grass (Surinam grass; [19]) | Plant response rating, Surinam Grass (Surinam grass; [21]) | Plant response rating (0 to 100 scale), Cocklebur (cocklebur; [19]) | Cocklebur plant response rating (cocklebur; [20]) | Plant response rating, Cocklebur (cocklebur; [21]) | Plant response rating (0 to 100 scale), Corn (corn; [19]) | Plant response rating, Corn (corn; [21]) | Plant response rating (0 to 100 scale), Crabgrass, Large (large crabgrass [7]; [19]) | Plant response rating (0 to 100 scale), Foxtail, Giant (giant foxtail [8]; [19]) | Foxtail, Giant plant response rating (giant foxtail [8]; [20]) | Plant response rating, Foxtail, Giant (giant foxtail [8]; [21]) | Plant response rating (0 to 100 scale), Lambsquarters (lambsquarters; [19]) | Plant response rating (0 to 100 scale), Morningglory (morningglory [9]; [19]) | Plant response rating, Morningglory (morningglory [9]; [21]) | Plant response rating (0 to 100 scale), Pigweed (pigweed; [19]) | Plant response rating (0 to 100 scale), Rice (rice [10]; 125 g ai/ha, 0 is no effect, 100 is complete control) | Plant response rating, Rice (rice [10]; 500 g ai/ha, visual rating, 0 = no effect, 100 = complete control) | Plant response rating (0 to 100 scale), Velvetleaf (velvetleaf [11]; [19]) | Velvetleaf plant response rating (velvetleaf [11]; [20]) | Blackgrass plant response rating (blackgrass; [20]) | Blackgrass plant response rating (blackgrass; [22]) | Wheat plant response rating (wheat; [20]) | Wheat plant response rating (wheat; [22]) | Oat, Wild plant response rating (wild oat; [20]) | Rice plant response rating (rice [12]) | Sedge, Umbrella plant response rating [13] | Ducksalad plant response rating (ducksalad) | Barnyardgrass plant response rating (barnyardgrass [14])
